Measurements from patent US20160000777A1, “METHODS OF USING HISTAMINE RECEPTOR AGONISTS AND ANTAGONISTS” (UNIVERSITY OF ROCHESTER, priority 2013, published 2016).

Experiments:
pro-Filaggrin (pro-FLG) = conditions: FIG. 6
Experimental: Human keratinocytes were isolated from neonatal foreskin as previously described (Poumay et al., “Basal Detachment of the Epidermis Using Dispase: Tissue Spatial Organization and Fate of Integrin alpha 6 beta 4 and Hemidesmosomes,” J Invest Dermatol 102:111-7 (1994), which is hereby incorporated by reference in its entirety). PHK were cultured in Keratinocyte-SFM (Invitrogen/Gibco, Grand Island, N.Y.) with 5 ng/ml human recombinant Epidermal Growth Factor 1-53 (EGF 1-53), 50 μg/ml Bovine Pituitary Extract (BEP), 1% Pen/Strep, and 0.2% Amphotericin B (Invitrogen/Gibco). To induce terminal differentiation PHK were grown in DMEM (Invitrogen/Gibco) with 1% Pen/Strep and 0.2% Amphotericin B (Invitrogen/Gibco). Where it is indicated, 10% heat-inactivated bovine serum (Invitrogen) was added to the differentiation media. […] The protein concentration of all samples was determined by BCA (Pierce). […] TJ integrity was assessed by trans-epithelial electrical resistance (TEER) and paracellular fluorescein flux (permeability). […] Keratinocyte differentiation was assessed by examining filaggrin, loricrin and keratin 10 expression by Western blot. Expression of HRs were evaluated by qPCR in skin biopsies taken from lesional and nonlesional sites in AD subjects (n=6-8) and non-atopics (n=10).

[1] = system: primary human keratinocytes (PHK); experiment: Transepithelial electric resistance (TEER) in cultured primary human keratinocytes; assay type: cell-based
Experimental: (§1) PHK were cultured in Keratinocyte-SFM (Invitrogen/Gibco, Grand Island, N.Y.) with 5 ng/ml human recombinant Epidermal Growth Factor 1-53 (EGF 1-53), 50 μg/ml Bovine Pituitary Extract (BEP), 1% Pen/Strep, and 0.2% Amphotericin B (Invitrogen/Gibco). To induce terminal differentiation PHK were grown in DMEM (Invitrogen/Gibco) with 1% Pen/Strep and 0.2% Amphotericin B (Invitrogen/Gibco). Where it is indicated, 10% heat-inactivated bovine serum (Invitrogen) was added to the differentiation media. […] Briefly, TEER was measured using an EVOMX voltohmmeter (World Precision Instruments, Sarasota, Fla.). To evaluate the paracellular flux of PHK, 0.02% Fluorescein (FITC) Sodium (Fluka, St. Louis, Mo.) in PBS (Invitrogen/Gibco) was added to the upper chamber. Samples were collected from the lower chamber after 30 minutes incubation for PHK culture or 10 and 20 minutes for skin explant. For each experiment paracellular flux was normalized to an empty filter. […] TJ integrity was assessed by trans-epithelial electrical resistance (TEER) and paracellular fluorescein flux (permeability).

[2] = system: primary human keratinocytes (PHK); experiment: Paracellular fluorescein flux (permeability) in cultured primary human keratinocytes; assay type: cell-based; conditions: histamine 100 μM, P<0.001, n=9, 96 hrs, FIG. 2B
Experimental: as §1

human skin explant = conditions: ex-vivo epidermal explants, histamine 100 μM, 24 hr, P<0.05, n=3
Experimental: Briefly, TEER was measured using an EVOMX voltohmmeter (World Precision Instruments, Sarasota, Fla.). To evaluate the paracellular flux of PHK, 0.02% Fluorescein (FITC) Sodium (Fluka, St. Louis, Mo.) in PBS (Invitrogen/Gibco) was added to the upper chamber. Samples were collected from the lower chamber after 30 minutes incubation for PHK culture or 10 and 20 minutes for skin explant. For each experiment paracellular flux was normalized to an empty filter.
Skin samples were mounted on filter supports (Whatman Nuclepore Track-Etch Membrane; GE Healthcare Biosciences, Pittsburgh, Pa.) with the epidermal side oriented upward, and sandwiched between two sterile custom made Plexiglas discs with an opening of 3 mm and placed in modified Snapwell™ chambers (Corning, Corning, N.Y., USA). Samples were submerged in DMEM media and kept at 37° C., 5% CO2 for 30 min. Fresh media with histamine (10 or 100 μM) or media alone were then added to both sides of the transwell. TEER and Paracellular flux of fluorescein of skin explant were measured at 24 hr.

ZO-1 = conditions: nasal and retinal epithelial cells, cited from earlier work
airway epithelial cells = conditions: cited from earlier work
human keratinocytes = conditions: cited from earlier work

With `O=C(O)COCCN1CCN(C(c2ccccc2)c2ccc(Cl)cc2)CC1` (centres unmarked) [Cetirizine] the “Prevention of histamine-mediated reduction of pro-FLG expression” value (pro-Filaggrin (pro-FLG); PHK co-treated with 100 μM histamine and 10 μM Cetirizine) was “prevented”.
In the case of `NCCc1c[nH]cn1` [histamine], the TEER peak ([1]; PHK differentiated in DMEM serum free media, histamine 100 μM, 96 hours post-stimulation, n=4, FIG. 2C) is reported as “significantly reduced TEER peak”, the “TEER, Mean Area under the curve (AUC)” value ([1]; PHK, histamine 10 and 100 μM, P<0.001, n=10, AUC of 0-120 h time points, FIG. 2A) is reported as “dose dependent reduction of TEER” and the “Permeability to Fluorescein, Mean Fold of control (FOC)” value [2] is reported as “enhancement of permeability”. For the same compound, the “Fluorescein permeability flux, Fold of control (FOC)” value (human skin explant; 20 minutes time point, FIG. 3B) was 1.3 fold, the “TEER, Fold of control (FOC)” value (human skin explant; FIG. 3A) was 0.7 fold and the pro-FLG expression (pro-Filaggrin (pro-FLG); PHK at day 5 post differentiation, 100 μM histamine, Western blot, n=4) was “significantly reduced”. For the same compound, the “Expression of ZO-1” value (ZO-1) was “reduce the expression”, the TJ paracellular permeability (airway epithelial cells) was “enhance TJ paracellular permeability” and the “Expression of stratum corneum and granulosum barrier proteins (e.g. filaggrin, Loricrin, claudin1, occludin)” value (human keratinocytes) was “reduced the expression”.
In the case of `COc1ccc(CN(CCN(C)C)c2ccccn2)cc1` [mepyriamine], the “Abrogation of histamine effect on ZO-1 expression” value (ZO-1; pretreatment with antagonist) is listed as “at least partially abrogated”.
